From patent US10017507B2, “Diaza-benzofluoranthrene compounds” (HARBIN PHARMACEUTICAL GROUP CO., LTD. GENERAL …, priority 2015, dated 2018)
pIC50: −log10 of the molar value.

Target: T1, PDE1A (Homo sapiens, UniProt P54750)
T1 construct: purchased SignalChem
Experiment: In vitro detection of phosphodiesterase (PDE): PDE1A enzyme activity by fluorescence polarization immunoassay
Assay type: biochemical
Conditions: human-derived enzyme, cAMP or cGMP substrate; read-out: IC50s for PDE1
Experimental: Test 1: In Vitro Detection of Phosphodiesterase (PDE)
the enzyme activity of PDE1A was determined by detecting the production of AMP/GMP by fluorescence polarization immunoassay, wherein AlexaFluor 633 labeled AMP/GMP was used to replace AMP/GMP to bind with the antibody.
Reaction buffer: 10 mM Tris-HCl, pH 7.5, 5 mM magnesium chloride, 0.01% Brij 35, 1 mM DTT and 1% DMSO;
Enzyme substrate: […] cAMP or cGMP (Ca^2+-calmodulin acts as a cofactor of PDE1A)
Detection reagent: Transcreener® AMP2/GMP2 antibody; AMP2/GMP2 AlexaFluor 633 tracer.
Experimental Procedure and Method:
1. Human-derived enzyme (commercially available from SignalChem) to be tested and substrate were diluted with freshly prepared reaction buffer;
2. The enzyme solution (with a concentration of 3 pM) was added to the holes of the microplates;
3. A series of solutions of the compounds in 100% DMSO (with the desired concentrations) were added to the holes containing the enzyme solution by Echo550, and then the microplates were incubated for 10 minutes at room temperature;
4. The substrate solution was added to the holes containing the enzyme and compounds to start the reaction;
5. The microplates were incubated for 1 hour under room temperature and vibration;
6. The detection mixture (tracer and antibody in stop buffer) was added to stop the enzyme reaction, and the microplates were incubated for 90 minutes under vibration;
7. The equipment EnVision (PerkinElmer), Cy5 FP Ex FP 620, Em S-pol 688/P-pol 688, FP mirror D658fp/D688 was used to detect the reaction mixture, and Ex/Em 620/688 was used to detect the fluorescence polarization.
In the Excel table, the enzyme activity corresponding to the FP signal was found on the AMP/GMP standard curve by reference to the DMSO negative control, and then was converted to product concentration (nM). GraphPad Prism was used to analyze and calculate the IC50 values.

Molecule | pIC50
CC[C@@]12C=C(c3cncc(C)n3)n3c4c(c5ccccc53)CCN(CCC1)[C@H]42 [Example 10, (4^1S,13aS)-13a-ethyl-12-(6-methylpyrazin-2-yl)-2,3,4^1,5,6,13a-hexahydro-1H-indolo[3,2,1-de]pyrido[3,2,1-ij][1,5]naphthyridine] | 4.70 to 6.00
CC[C@@]12C=C(c3noc(-c4cccs4)n3)n3c4c(c5ccccc53)CCN(CCC1)[C@H]42 [Example 28, 3-((4^1S,13aS)-13a-ethyl-2,3,4^1,5,6,13a-hexahydro-1H-indolo[3,2,1-de]pyrido[3,2,1-ij][1,5]naphthyridin-12-yl)-5-(thiophen-2-yl)-1,2,4-oxadiazole] | < 4.00
CC[C@@]12C=C(/C(C#N)=N/OC)n3c4c(c5ccccc53)CCN(CCC1)[C@H]42 [Example 2, (4^1S,13aS,Z)-13a-ethyl-N-methoxyl-2,3,4^1,5,6,13a-hexahydro-1H-indolo[3,2,1-de]pyrido[3,2,1-ij][1,5]naphthyridine-12-carbimidoyl cyanide] | 4.70 to 6.00
CC[C@@]12C=C(c3nnc(C)o3)n3c4c(c5ccccc53)CCN(CCC1)[C@H]42 [Example 17, 2-((4^1S,13aS)-13a-ethyl-2,3,4^1,5,6,13a-hexahydro-1H-indolo[3,2,1-de]pyrido[3,2,1-ij][1,5]naphthyridin-12-yl)-5-methyl-1,3,4-oxadiazole] | 4.70 to 6.00
CC[C@@]12C=C(c3nc(-c4ccc(F)cc4)no3)n3c4c(c5ccccc53)CCN(CCC1)[C@H]42 [Example 32, 5-((4S,13aS)-13a-ethyl-2,3,4^1,5,6,13a-hexahydro-1H-indolo[3,2,1-de]pyrido[3,2,1-ij][1,5]naphthyridin-12-yl)-3-(4-fluorophenyl)-1,2,4-oxadiazole] | < 4.00
CC[C@@]12C=C(c3noc(-c4ccc(F)cc4)n3)n3c4c(c5ccccc53)CCN(CCC1)[C@H]42 [Example 27, 3-((4^1S,13aS)-13a-ethyl-2,3,4^1,5,6,13a-hexahydro-1H-indolo[3,2,1-de]pyrido[3,2,1-ij][1,5]naphthyridin-12-yl)-5-(4-fluorophenyl)-1,2,4-oxadiazole] | < 4.00
CC[C@@]12C=C(c3nnco3)n3c4c(c5ccccc53)CCN(CCC1)[C@H]42 [Example 15, 2-((4^1S,13aS)-13a-ethyl-2,3,4^1,5,6,13a-hexahydro-1H-indolo[3,2,1-de]pyrido[3,2,1-ij][1,5]naphthyridin-12-yl)-1,3,4-oxadiazole] | < 4.00
CC[C@@]12C=C(c3ccc(C)nn3)n3c4c(c5ccccc53)CCN(CCC1)[C@H]42 [Example 9, (4^1S,13aS)-13a-ethyl-12-(6-methylpyridazin-3-yl)-2,3,4^1,5,6,13a-hexahydro-1H-indolo[3,2,1-de]pyrido[3,2,1-ij][1,5]naphthyridine] | 4.70 to 6.00
(4^1S,13aS)-13a-ethyl-N-(3-methoxylpropyl)-12-(3-methyl-1,2,4-oxadiazol-5-yl)-2,3,4^1,5,6,13a-hexahydro-1H-indolo[3,2,1-de]pyrido[3,2,1-ij][1,5]naphthyridin-9-sulfonamide [Example 78] | 4.00 to 4.70
CC[C@@]12C=C(c3ccccn3)n3c4c(c5ccccc53)CCN(CCC1)[C@H]42 [Example 11, (4^1S,13aS)-13a-ethyl-12-(pyridin-2-yl)-2,3,4^1,5,6,13a-hexahydro-1H-indolo[3,2,1-de]pyrid o[3,2,1-ij][1,5]naphthyridine] | 4.00 to 4.70
CC[C@@]12C=C(c3noc(-c4ccncc4)n3)n3c4c(c5ccccc53)CCN(CCC1)[C@H]42 [Example 24, 3-((4^1S,13aS)-13a-ethyl-2,3,4^1,5,6,13a-hexahydro-1H-indolo[3,2,1-de]pyrido[3,2,1-ij][1,5]naphthyridin-12-yl)-5-(pyridin-4-yl)-1,2,4-oxadiazole] | 4.00 to 4.70
CC[C@@]12C=C(c3nc(C(F)(F)F)no3)n3c4c(c5ccccc53)CCN(CCC1)[C@H]42 [Example 22, 5-((4^1S,13aS)-13a-ethyl-2,3,4^1,5,6,13a-hexahydro-1H-indolo[3,2,1-de]pyrido[3,2,1-ij][1,5]naphthyridin-12-yl)-3-trifluoromethyl-1,2,4-oxadiazole] | 4.00 to 4.70
CC[C@@]12C=C(c3cccc(C)n3)n3c4c(c5ccccc53)CCN(CCC1)[C@H]42 [Example 12, (4^1S,13aS)-13a-ethyl-12-(6-methylpyridin-2-yl)-2,3,4^1,5,6,13a-hexahydro-1H-indolo[3,2,1-de]pyrido[3,2,1-ij][1,5]naphthyridine] | 4.70 to 6.00

More lines, now with the values ahead:

pIC50 | Molecule
4.70 to 6.00 | CC[C@@]12C=C(c3nc(C4CC4)no3)n3c4c(c5ccccc53)CCN(CCC1)[C@H]42 [Example 35, 3-Cyclopropyl-5-((4^1S,13aS)-13a-ethyl-2,3,4^1,5,6,13a-hexahydro-1H-indolo[3,2,1-de]pyrido[3,2,1-ij][1,5]naphthyridin-12-yl)-1,2,4-oxadiazole]
≥ 6.00 | CC[C@@]12C=C(c3nc(C)c(C)o3)n3c4c(c5ccc(S(=O)(=O)NCCCOC)cc53)CCN(CCC1)[C@H]42 [Example 70, (4^1S,13aS)-12-(4,5-dimethyloxazol-2-yl)-13a-ethyl-N-(3-methoxylpropyl)-2,3,4^1,5,6,13a-hexahydro-1H-indolo[3,2,1-de]pyrido[3,2,1-ij][1,5]naphthyridin-9-sulfonamide]
4.70 to 6.00 | CC[C@@]12C=C(c3nc(C)c(C(N)=O)o3)n3c4c(c5ccccc53)CCN(CCC1)[C@H]42 [Example 62, 2-((4^1S,13aS)-13a-ethyl-2,3,4^1,5,6,13a-hexahydro-1H-indolo[3,2,1-de]pyrido[3,2,1-ij][1,5]naphthyridin-12-yl)-4-methyloxazole-5-carboxamide]
≥ 6.00 | CC[C@@]12C=C(c3nc(C)c(C(=O)NC)o3)n3c4c(c5ccccc53)CCN(CCC1)[C@H]42 [Example 64, 2-((4^1S,13aS)-13a-ethyl-2,3,4^1,5,6,13a-hexahydro-1H-indolo[3,2,1-de]pyrido[3,2,1-ij][1,5]naphthyridin-12-yl)-N,4-dimethyloxazole-5-carboxamide]
4.70 to 6.00 | CC[C@@]12C=C(c3nc(C)co3)n3c4c(c5ccccc53)CCN(CCC1)[C@H]42 [Example 50, 2-((4^1S,13aS)-13a-ethyl-2,3,4^1,5,6,13a-hexahydro-1H-indolo[3,2,1-de]pyrido[3,2,1-ij][1,5]naphthyridin-12-yl)-4-methyloxazole]
4.70 to 6.00 | CC[C@@]12C=C(c3nc(C)c(C)o3)n3c4c(c5c(S(=O)(=O)NC)cccc53)CCN(CCC1)[C@H]42 [Example 73, (4^1S,13aS)-12-(4,5-dimethyloxazol-2-yl)-13a-ethyl-N-methyl-2,3,4^1,5,6,13a-hexahydro-1H-indolo[3,2,1-de]pyrido[3,2,1-ij][1,5]naphthyridin-7-sulfonamide]
4.00 to 4.70 | CC[C@@]12C=C(c3nc(C(F)F)no3)n3c4c(c5ccccc53)CCN(CCC1)[C@H]42 [Example 36, 3-Difluoromethyl-5-((4^1S,13aS)-13a-ethyl-2,3,4^1,5,6,13a-hexahydro-1H-indolo[3,2,1-de]pyrido[3,2,1-ij][1,5]naphthyridin-12-yl)-1,2,4-oxadiazole]
≥ 6.00 | CC[C@@]12C=C(c3nc(C(C)C)c(C)o3)n3c4c(c5ccccc53)CCN(CCC1)[C@H]42 [Example 57, 2-((4^1S,13aS)-13a-ethyl-2,3,4^1,5,6,13a-hexahydro-1H-indolo[3,2,1-de]pyrido[3,2,1-ij][1,5]naphthyridin-12-yl)-4-isopropyl-5-methyloxazole]
≥ 6.00 | CC[C@@]12C=C(c3nc(C)c(C)o3)n3c4c(c5ccc(S(=O)(=O)NC)cc53)CCN(CCC1)[C@H]42 [Example 68, (4^1S,13aS)-12-(4,5-dimethyloxazol-2-yl)-13a-ethyl-N-methyl-2,3,4^1,5,6,13a-hexahydro-1H-indolo[3,2,1-de]pyrido[3,2,1-ij][1,5]naphthyridin-9-sulfonamide]
≥ 6.00 | CC[C@@]12C=C(c3nc4c(o3)CCOC4)n3c4c(c5ccccc53)CCN(CCC1)[C@H]42 [Example 66, 2-((4^1S,13aS)-13a-ethyl-2,3,4^1,5,6,13a-hexahydro-1H-indolo[3,2,1-de]pyrido[3,2,1-ij][1,5]naphthyridin-12-yl)-6,7-dihydro-4H-pyrano[3,4-d]oxazole]
4.70 to 6.00 | CC[C@@]12C=C(c3nc(C(C)(C)O)no3)n3c4c(c5ccccc53)CCN(CCC1)[C@H]42 [Example 37, 2-(5-((4^1S,13aS)-13a-ethyl-2,3,4^1,5,6,13a-hexahydro-1H-indolo[3,2,1-de]pyrido[3,2,1-ij][1,5]naphthyridin-12-yl)-1,2,4-oxadiazol-3-yl)-propan-2-ol]
≥ 6.00 | CC[C@@]12C=C(c3nc(C)c(C)o3)n3c4c(c5ccccc53)CCN(CCC1)[C@H]42 [Example 52, 2-((4^1S,13aS)-13a-ethyl-2,3,4^1,5,6,13a-hexahydro-1H-indolo[3,2,1-de]pyrido[3,2,1-ij][1,5]naphthyridin-12-yl)-4,5-dimethyloxazole]
